What all share (assay): SelectScreen kinase assay
For assay [1], the target named is T1, DYRK2 (Homo sapiens, UniProt Q92630).
T1 sequence (Q92630 1-601): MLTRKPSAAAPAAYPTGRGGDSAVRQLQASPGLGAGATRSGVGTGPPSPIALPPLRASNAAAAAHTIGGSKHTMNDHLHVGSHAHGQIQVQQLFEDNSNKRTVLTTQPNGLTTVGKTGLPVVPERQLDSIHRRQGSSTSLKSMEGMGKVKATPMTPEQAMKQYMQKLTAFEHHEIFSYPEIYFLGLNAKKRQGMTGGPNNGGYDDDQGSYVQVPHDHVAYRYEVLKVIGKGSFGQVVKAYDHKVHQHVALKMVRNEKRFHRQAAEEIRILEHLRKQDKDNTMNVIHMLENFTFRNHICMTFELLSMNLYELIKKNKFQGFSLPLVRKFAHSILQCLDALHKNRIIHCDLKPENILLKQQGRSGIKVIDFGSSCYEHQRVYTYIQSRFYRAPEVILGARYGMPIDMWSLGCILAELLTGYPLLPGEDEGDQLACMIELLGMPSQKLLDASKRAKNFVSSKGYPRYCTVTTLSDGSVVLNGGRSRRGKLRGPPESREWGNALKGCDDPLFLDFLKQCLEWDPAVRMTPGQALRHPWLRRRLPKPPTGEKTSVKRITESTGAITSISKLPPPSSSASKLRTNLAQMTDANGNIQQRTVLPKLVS
The conditions noted are these: for Inhibition at 1 µM (%): DYRK2, LanthaScreen Binding.

The target of assay [2] is T2, JAK3 (Homo sapiens, UniProt P52333).
T2 sequence (P52333 1-1124): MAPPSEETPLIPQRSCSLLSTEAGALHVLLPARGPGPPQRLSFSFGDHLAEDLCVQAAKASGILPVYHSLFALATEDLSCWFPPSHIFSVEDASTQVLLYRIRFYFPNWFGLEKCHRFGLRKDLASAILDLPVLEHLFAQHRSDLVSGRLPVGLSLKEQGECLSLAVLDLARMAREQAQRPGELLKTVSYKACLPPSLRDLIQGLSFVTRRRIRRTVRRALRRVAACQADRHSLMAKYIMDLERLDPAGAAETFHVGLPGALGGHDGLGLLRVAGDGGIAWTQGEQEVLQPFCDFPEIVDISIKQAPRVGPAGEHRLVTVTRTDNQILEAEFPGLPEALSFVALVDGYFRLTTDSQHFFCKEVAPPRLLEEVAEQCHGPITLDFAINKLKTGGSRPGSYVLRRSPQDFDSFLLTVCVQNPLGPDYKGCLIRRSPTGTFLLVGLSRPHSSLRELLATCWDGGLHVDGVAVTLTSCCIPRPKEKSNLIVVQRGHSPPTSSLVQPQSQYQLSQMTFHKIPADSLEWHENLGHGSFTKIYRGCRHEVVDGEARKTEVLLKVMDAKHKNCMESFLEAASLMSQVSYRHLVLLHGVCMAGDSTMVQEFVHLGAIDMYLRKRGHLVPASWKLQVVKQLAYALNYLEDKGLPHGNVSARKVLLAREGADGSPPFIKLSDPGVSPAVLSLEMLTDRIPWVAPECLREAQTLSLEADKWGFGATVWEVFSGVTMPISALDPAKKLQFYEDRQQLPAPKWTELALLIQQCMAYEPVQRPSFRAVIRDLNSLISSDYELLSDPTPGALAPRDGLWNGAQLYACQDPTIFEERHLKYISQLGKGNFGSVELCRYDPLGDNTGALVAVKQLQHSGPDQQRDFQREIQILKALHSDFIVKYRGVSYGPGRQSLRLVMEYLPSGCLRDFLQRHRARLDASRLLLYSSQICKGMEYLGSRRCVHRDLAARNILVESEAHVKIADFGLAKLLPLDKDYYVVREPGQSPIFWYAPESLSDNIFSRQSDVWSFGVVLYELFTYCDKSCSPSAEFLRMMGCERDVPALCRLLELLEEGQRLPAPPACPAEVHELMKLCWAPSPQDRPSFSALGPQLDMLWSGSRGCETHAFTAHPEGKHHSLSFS

Assay [3] has as its target KDR (VEGFR2) (Homo sapiens, UniProt P35968).
The subject of assay [4] is KDR (VEGFR2). As to conditions: IC50 on that kinase divided by IC50 on FES^S700C.
The target of assay [5] is T3, HUNK (Homo sapiens, UniProt P57058).
T3 sequence (P57058 1-714): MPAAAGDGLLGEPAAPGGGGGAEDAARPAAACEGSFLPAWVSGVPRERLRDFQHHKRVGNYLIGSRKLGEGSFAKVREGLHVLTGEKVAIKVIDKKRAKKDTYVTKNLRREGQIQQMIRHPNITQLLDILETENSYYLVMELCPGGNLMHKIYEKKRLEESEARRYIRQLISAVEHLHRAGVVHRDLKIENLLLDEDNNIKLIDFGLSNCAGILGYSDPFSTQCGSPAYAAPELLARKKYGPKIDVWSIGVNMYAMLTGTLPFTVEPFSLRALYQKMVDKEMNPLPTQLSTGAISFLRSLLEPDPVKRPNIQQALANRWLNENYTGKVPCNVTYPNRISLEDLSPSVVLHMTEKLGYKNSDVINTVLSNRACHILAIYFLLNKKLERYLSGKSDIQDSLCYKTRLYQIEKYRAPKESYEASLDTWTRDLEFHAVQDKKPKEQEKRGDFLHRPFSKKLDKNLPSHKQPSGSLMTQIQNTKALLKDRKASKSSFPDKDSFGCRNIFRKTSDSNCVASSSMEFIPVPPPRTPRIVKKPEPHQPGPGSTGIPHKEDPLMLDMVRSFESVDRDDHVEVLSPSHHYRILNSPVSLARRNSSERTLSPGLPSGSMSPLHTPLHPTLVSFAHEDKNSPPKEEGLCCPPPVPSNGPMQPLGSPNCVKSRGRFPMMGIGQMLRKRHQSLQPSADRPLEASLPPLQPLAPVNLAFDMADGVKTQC

Where [6] appears, read: 1 h, 1 μM WEL028, 1 h preincubation.

A word on the inhibition: it is the change of the read-out against control, counted positive when it falls. One may read the Inhibition as the change of the read-out against control, counted positive when it falls. As usually defined, the IC50 is the concentration needed to halve the response being measured.

Structures are written as SMILES. Like-named read-outs stand apart in the source and are kept apart here.

Chain of KDR (VEGFR2) (Homo sapiens, UniProt P35968) (P35968 20-1356, species assumed): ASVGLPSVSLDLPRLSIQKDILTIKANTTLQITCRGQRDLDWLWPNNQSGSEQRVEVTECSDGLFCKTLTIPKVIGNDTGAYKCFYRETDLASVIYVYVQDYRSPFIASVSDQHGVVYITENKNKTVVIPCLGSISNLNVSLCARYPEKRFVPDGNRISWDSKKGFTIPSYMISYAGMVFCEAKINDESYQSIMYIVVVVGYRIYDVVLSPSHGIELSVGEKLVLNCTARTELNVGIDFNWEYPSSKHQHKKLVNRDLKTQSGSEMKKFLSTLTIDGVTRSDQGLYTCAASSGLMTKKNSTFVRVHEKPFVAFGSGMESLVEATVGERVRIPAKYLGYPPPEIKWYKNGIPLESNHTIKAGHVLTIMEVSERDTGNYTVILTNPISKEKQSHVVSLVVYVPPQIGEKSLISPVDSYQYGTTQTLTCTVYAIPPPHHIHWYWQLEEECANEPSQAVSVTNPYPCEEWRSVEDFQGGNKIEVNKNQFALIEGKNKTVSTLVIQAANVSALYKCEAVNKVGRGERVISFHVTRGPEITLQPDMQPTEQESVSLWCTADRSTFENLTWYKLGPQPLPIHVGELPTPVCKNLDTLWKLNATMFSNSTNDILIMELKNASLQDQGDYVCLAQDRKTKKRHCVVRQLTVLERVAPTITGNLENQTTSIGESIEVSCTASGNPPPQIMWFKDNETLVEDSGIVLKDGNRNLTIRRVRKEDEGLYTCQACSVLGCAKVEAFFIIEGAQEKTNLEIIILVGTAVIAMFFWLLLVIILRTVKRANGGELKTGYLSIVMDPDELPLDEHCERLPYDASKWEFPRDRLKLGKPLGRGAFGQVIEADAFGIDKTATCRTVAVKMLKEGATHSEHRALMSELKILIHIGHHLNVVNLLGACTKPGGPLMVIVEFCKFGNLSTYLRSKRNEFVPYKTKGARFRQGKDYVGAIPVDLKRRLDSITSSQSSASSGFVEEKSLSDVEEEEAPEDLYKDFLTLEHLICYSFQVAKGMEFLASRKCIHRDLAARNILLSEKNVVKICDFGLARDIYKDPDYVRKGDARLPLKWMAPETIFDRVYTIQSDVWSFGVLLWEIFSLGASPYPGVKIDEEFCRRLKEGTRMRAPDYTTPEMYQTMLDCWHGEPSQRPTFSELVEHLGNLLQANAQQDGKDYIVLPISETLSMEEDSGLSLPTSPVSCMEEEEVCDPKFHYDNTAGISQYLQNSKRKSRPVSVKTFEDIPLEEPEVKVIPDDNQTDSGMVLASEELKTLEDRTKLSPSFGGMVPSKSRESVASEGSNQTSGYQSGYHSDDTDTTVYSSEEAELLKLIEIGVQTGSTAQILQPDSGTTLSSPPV

As to `C#CCOc1ccc(Nc2ncc(Cl)c(Nc3ccccc3NC(=O)C=C)n2)c(OC)c1` [Compound 6], the inhibition at 1 µM was determined as 7% in assay [1] (setting [6]); 14% in assay [2] (setting [6]); 18% in assay [2] (read-out: Inhibition at 1 µM (%), JAK3, 1 µM, ZLYTE, ATP Km app); 67% in assay [3] (setting [6]); 69% in assay [3] (read-out: Inhibition at 1 µM (%), KDR (VEGFR2), 1 µM, ZLYTE, ATP Km app); 20% in assay [5] (setting [6]). Moreover, in assay [5] (read-out: Inhibition at 1 µM (%), HUNK, 1 µM, LanthaScreen Binding), the inhibition at 1 µM was found to be 19%. Moreover, the “Inhibition at 1 µM (%)” value in assay [1] came out at 11%; in assay [1] (listed as WEL028, 1 µM), 4%; in assay [2] (JAK3, 1 µM, ZLYTE, ATP Km app, listed as WEL028, 1 µM) it was 10%; in assay [3] (KDR (VEGFR2), 1 µM, ZLYTE, ATP Km app, listed as WEL028, 1 µM) it was 65%; in assay [5] (HUNK, 1 µM, LanthaScreen Binding, listed as WEL028, 1 µM) it was 21%. The molecule also showed an IC50 in assay [3] of 631 nM. The inhibition at 10 µM in assay [3] (1 h, log[inhibitor] (M) -5.00, ZLYTE, ATP Km app) was found to be 101%. In addition, the inhibition at 3.31 µM in assay [3] (1 h, log[inhibitor] (M) -5.48, ZLYTE, ATP Km app) turned out to be 99%. Moreover, the inhibition at 1.12 µM in assay [3] (1 h, log[inhibitor] (M) -5.95, ZLYTE, ATP Km app) is 70%. Moreover, in assay [3] (1 h, log[inhibitor] (M) -6.43, ZLYTE, ATP Km app), the inhibition at 0.372 µM was determined as 37%. Besides, in assay [3] (1 h, log[inhibitor] (M) -6.91, ZLYTE, ATP Km app), the inhibition at 0.123 µM came out at 26%. In assay [3] (1 h, log[inhibitor] (M) -7.39, ZLYTE, ATP Km app), the inhibition at 0.04074 µM turned out to be 16%. Besides, the inhibition at 0.00151 µM in assay [3] (1 h, log[inhibitor] (M) -8.82, ZLYTE, ATP Km app) is 17%. Also, the inhibition at 0.00049 µM in assay [3] (1 h, log[inhibitor] (M) -9.31, ZLYTE, ATP Km app) was 17%. In assay [4], the Apparent fold selectivity is recorded as 153 fold.

For the origin of these results see PMC7316778 (Nature Communications, 2020).
